Converted amounts (≈) assume the structure as drawn. “And” between values parts separate entries of the source, which are not always exact repeats. Equal values may be shown once.

These results are taken from paper PMC12084062, “Integrating in vitro and in silico approaches for exploring antidiabetic potential of dimethyl and thiomethyl indolinone derivatives” (PLOS One, 2025).

Holding throughout (assay type): biochemical
The test system of assay [1] is α-amylase. The experiment in a line: In vitro α-amylase inhibition. The conditions noted are these: for maximum inhibition of α-amylase: at 1000 μg/mL; for IC50 against α-amylase: in vitro. The protocol:
The standard protocol of in vitro α-amylase inhibition was performed according to Naeem et al. 70 µL of a 50 mM phosphate buffer (pH 6.0) were combined with 100 µL of the reaction solution. […] (0.057 units) of an enzyme, and 50 µL of the compound being examined was added to the solution. After being thoroughly blended, a 10-minute pre-incubation at 25 °C was carried out. The absorbance of the resulting mixture was measured at a wavelength of 400 nm. Further, a solution equal to 10 µL a 0.5 mM concentration of p-nitrophenyl glucopyranoside was added to the solution, and re-incubation carried out at a 25 °C temperature. The absorbance of the solution was measured at a wavelength of 400 nm after incubation.

Assay [2] addresses human recombinant DPP-IV enzyme (Homo sapiens, UniProt P27487). In words: DPP-IV inhibition assay. The conditions noted are these: in vitro; read-out: IC50 against DPP-IV (converted). As to the method: The assay was carried out according to the established method with slight modification. Various concentrations of the synthesized compounds were added to human recombinant DPP-IV enzyme solution in respective wells of a 96-well plate. After incubation, pNA substrate (Gly-Pro-pNA) dissolved in Tris buffer was added to initiate the reaction and further incubated. After incubation, acetic acid solution was added to stop the reaction and the absorbance was recorded. The percentage inhibition was calculated by using the following equation:
Percentinhibition=1−(absorbanceofthetestwell/absorbanceoftheuntreatedcontrol)x100

Assay [3] concerns protein glycation. In words: Protein glycation assay. Conditions: in vitro. As to the method: Briefly, 50 µl of protein solution in distil water was added to 10 µl of glyceraldehyde solution in black microplates. The plates were sealed and incubated at 37 °C for 24 h. After incubation, test compound solutions were then added. Blank containing distilled water served as a negative control (untreated), while Rutin as a positive control. The fluorescence was measured at 370 nm (excitation), and 440 nm (emission). The percentage inhibition was calculated using the following formula:
Percentinhibition=1−fluorescenceoftestwell/fluoresecenceofnegativecontrolx100

The term IC50 denotes the concentration needed to halve the response being measured. Turning to `Cc1ccc(/C=C2/C(=O)Nc3cc(Cl)ccc32)c(C)c1` [Compound 1, (E)-3-(2,4-Dimethylbenzylidene)-6-chloroindolin-2-one], in assay [1], the “maximum inhibition of α-amylase” value came out at 80% and the “IC50 against α-amylase” value was 32.917 µg/mL (≈ 116 µM). For the same molecule, in assay [2], the half-inhibitory concentration (IC50) is 110 µM. In assay [3], the “IC50 against protein glycation” value turned out to be 210.592 µg/mL (≈ 742 µM).

As for `C[C@@H]1O[C@@H](OC[C@H]2O[C@@H](Oc3c(-c4ccc(O)c(O)c4)oc4cc(O)cc(O)c4c3=O)[C@H](O)[C@@H](O)[C@@H]2O)[C@H](O)[C@H](O)[C@H]1O` [Rutin, reference compound], the “IC50 against protein glycation” value in assay [3] was determined as 20.780 µg/mL (≈ 34 µM).

With `CSc1ccc(/C=C2/C(=O)Nc3cc(Cl)ccc32)cc1` [Compound 2, (E)-3-(4-(Methylthio)benzylidene)-6-chloroindolin-2-one], in assay [1], the “maximum inhibition of α-amylase” value stood at 75%; the “IC50 against α-amylase” value is 42.691 µg/mL and 42.69 µg/mL. Moreover, the half-inhibitory concentration (IC50) in assay [2] was 156 µM. For the same molecule, the “IC50 against protein glycation” value in assay [3] was 341.551 µg/mL (≈ 1130 µM).
